Target: T1, TLR3 (Homo sapiens, UniProt O15455)
T1 construct: host or cells: HEK-Blue (HEK293) TLR3 reporter cells
T1 sequence (O15455 24-904): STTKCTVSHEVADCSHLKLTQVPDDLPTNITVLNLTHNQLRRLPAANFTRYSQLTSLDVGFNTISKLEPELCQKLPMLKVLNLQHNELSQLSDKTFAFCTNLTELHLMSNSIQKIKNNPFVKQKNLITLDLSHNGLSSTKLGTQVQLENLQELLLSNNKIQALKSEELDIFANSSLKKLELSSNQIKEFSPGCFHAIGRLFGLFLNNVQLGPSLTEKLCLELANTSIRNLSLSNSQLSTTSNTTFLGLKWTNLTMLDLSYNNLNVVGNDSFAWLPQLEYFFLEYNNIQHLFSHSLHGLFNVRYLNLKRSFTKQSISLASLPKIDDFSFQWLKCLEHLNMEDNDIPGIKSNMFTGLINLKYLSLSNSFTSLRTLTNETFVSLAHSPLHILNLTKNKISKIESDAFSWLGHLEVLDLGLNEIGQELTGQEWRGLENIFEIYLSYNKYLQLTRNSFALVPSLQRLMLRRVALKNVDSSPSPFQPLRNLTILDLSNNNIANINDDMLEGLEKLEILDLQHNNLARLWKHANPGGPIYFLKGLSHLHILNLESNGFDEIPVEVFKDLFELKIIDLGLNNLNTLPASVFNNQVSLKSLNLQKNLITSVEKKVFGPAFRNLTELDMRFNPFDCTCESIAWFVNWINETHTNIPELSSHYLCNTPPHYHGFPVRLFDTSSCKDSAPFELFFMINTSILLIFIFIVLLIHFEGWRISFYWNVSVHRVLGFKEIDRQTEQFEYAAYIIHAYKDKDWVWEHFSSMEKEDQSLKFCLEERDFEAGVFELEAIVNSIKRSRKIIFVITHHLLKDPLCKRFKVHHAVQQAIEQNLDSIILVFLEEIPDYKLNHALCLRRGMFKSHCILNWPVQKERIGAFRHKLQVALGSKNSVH
Test: HEK-Blue TLR3 reporter cell SEAP assay, stimulated with murine plasma or liver total RNA
Format: cell-based
Details: plasma from DIO mice; inhibitor added 30 min before stimulus, or plasma digested with RNase I; FIG. 2F
Method: Stable TLR3-, 4-, 8-, and 9-overexpressing HEK-Blue and TLR3 knockout (KO) HEK-Dual Null cells (Invivogen) were propagated in high-glucose Dulbecco's modified Eagle's medium (DMEM) with 10% (v/v) fetal bovine serum (FBS, Corning) and maintained in growth medium supplemented with selective antibiotics following the manufacturer's instructions. RAW264.7 cells (ATCC) were cultured in high-glucose DMEM with 10% (v/v) FBS and then were subcultured by detachment with a cell scraper. C3H10T1/2 cells (ATCC) were cultured in high-glucose DMEM with 10% (v/v) FBS and 1× penicillin/streptomycin (Thermo Fisher). 3T3-L1 cells (ATCC) were cultivated in high-glucose DMEM with 10% (v/v) calf serum and 1× penicillin/streptomycin to maintain the undifferentiated status. At two days post-confluence, 3T3-L1 preadipocytes were induced to differentiate into adipocytes using an adipogenic cocktail containing 10 μg/mL insulin, 1 μM dexamethasone, and 0.5 mM 3-isobutyl-1-methylxanthine in 10% FBS DMEM. Two days post-induction, the cell medium was switched to the maintenance medium of 10% FBS DMEM supplemented with 2.5 μg/mL insulin.
HEK-Blue TLR3 cells (5×10^4 cells/well) were seeded and cultured overnight in 96-well plates in DMEM and then stimulated with murine plasma or liver total RNA. After 48 h, the activation of reporter cells was determined with a Quanti-blue medium (Invivogen). […]

Molecule	activation of TLR3 by obese plasma
O=C(N[C@H](Cc1ccccc1)C(=O)O)c1sc2cc(F)ccc2c1Cl [TLR3 inhibitor]	blocked
ribonuclease I [RNase I]	blocked

Source: US20250255976A1, “CATIONIC BIOMATERIALS AMELIORATE OBESITY-ASSOCIATED CHRONIC INFLAMMATION AND FOCAL ADIPOSITY” (THE TRUSTEES OF COLUMBIA UNIVERSITY IN THE CITY OF NEW YORK, priority 2022, published 2025)
